For 67 molecules, melting point results are on record in the Bradley open melting point set (2014).

Several values for one entry are separate records, joined by “and”; a condition that tells them apart may be missing. Equal entries are not always repeated.

Regarding `ClC1=C(Cl)[C@]2(Cl)[C@@H]3[C@@H]4C[C@@H]([C@H]5O[C@@H]45)[C@@H]3[C@@]1(Cl)C2(Cl)Cl`, the melting point turned out to be 176 °C. The value for `BrC(=C(c1ccccc1)c1ccccc1)c1ccccc1` [bromotriphenylethylene] was 114 °C. In the case of `CCOC(=O)c1ccc(B(O)O)cc1` [4-(ethoxycarbonyl)benzeneboronic acid], the melting point worked out at 139 °C. The value for `CC(C)CB(O)O` [isobutylboronic acid] was 109 °C.

With `Clc1cc(Cl)c(I)c(Cl)c1` [1,3,5-trichloro-2-iodobenzene], the melting point came to 55 °C. With `CC(O)CN` (racemic) [dl-1-amino-2-propanol] the figure was -2 °C; with `CNC(=C[N+](=O)[O-])NCCSCc1ccc(CN(C)C)o1` [ranitidine], 69 °C; with `Oc1ccc(Oc2ccccc2)cc1` [4-phenoxyphenol], 84 °C. The value for `C=Cc1cccc([N+](=O)[O-])c1` [m-nitrostyrene] was -5 °C; that for `OCCOc1ccccc1` [2-phenoxyethanol] was 13 °C. For the molecule `CCCI` [1-iodopropane], the melting point is -101 °C. The value for `N#CCS(=O)(=O)c1ccccc1` [phenylsulfonylacetonitrile] was 112 °C; that for `C(=N\c1ccccc1)/c1ccccc1` [N-benzylideneaniline] was 53 °C; that for `Cc1cc(C#N)cc(C#N)c1` [5-methylisophthalonitrile] was 164 °C.

In turn, `Cc1ccc(N)c(Cl)c1` [2-chloro-4-methylaniline] yielded a melting point of 7 °C. Regarding `O=C1CCCCCCCCCCC1` [cyclododecanone], the melting point turned out to be 61 °C. For the molecule `O=C(C(=O)c1ccccc1)c1ccccc1` [benzil], the melting point turned out to be 95 °C. With `OB(O)c1ccc(CBr)cc1` [4-(bromomethyl)benzeneboronic acid] the figure was 148 °C; with `CC(C)CCBr` [1-bromo-3-methylbutane], -112 °C; with `CC(=O)c1ccc(Br)cc1` [4'-bromoacetophenone], 51 °C. The value for `Oc1ccc(I)cc1` [4-iodophenol] was 93 °C; that for `C[C@@H]1C[C@H]2[C@@H]3CCC4=CC(=O)C=C[C@]4(C)[C@@]3(F)[C@@H](O)C[C@]2(C)[C@@]1(O)C(=O)CO` [dexamethasone] was 263 °C; that for `Cc1cccc([N+](=O)[O-])c1C` [3-nitro-1,2-dimethylbenzene] was 9 °C. Take `O=C(O)CCCCBr` [5-bromovaleric acid]: the melting point was 40 °C. The value for `O=C(O)C1CCCCC1` [cyclohexanecarboxylic acid] was 30 °C; that for `O=C(c1ccccc1)c1ccc(Cl)cc1` [4-chlorobenzophenone] was 76 °C.

With `COC(F)(F)C(Cl)Cl` [Methoxyflurane], the melting point was -35 °C. `Cc1c(C)c2c(c(C)c1O)CC[C@@](C)(CCC[C@H](C)CCC[C@H](C)CCCC(C)C)O2` [Vitamin E]: the melting point turned out to be 2 °C.

In turn, `O=[N+]([O-])c1ccc(I)cc1` [1-iodo-4-nitrobenzene] had a melting point of 175 °C. The value for `CC(=O)Nc1ccc(N)cn1` [2-acetamido-5-aminopyridine] was 149 °C; that for `CCC(C)(C)Cl` [2-Chloro-2-methylbutane] was -73 °C. The molecule `O=[N+]([O-])c1cc(C(F)(F)F)cc([N+](=O)[O-])c1Cl` [2-Chloro-1,3-dinitro-5-(trifluoromethyl)benzene] gave a melting point of 57 °C. Regarding `CC12C=CC(O1)C1C(=O)OC(=O)C12` (configuration not stated), the melting point was 70 °C. The value for `O=[N+]([O-])c1ccccc1Br` [o-bromonitrobenzene] was 43 °C; that for `SCCCS` [1,3-propanedithiol] was -79 °C. On to `CCC1(c2ccccc2)NC(=O)N(C)C1=O` (configuration not stated) [mephenytoin], for which the melting point is 135 °C and 136 °C. In the case of `C#CCO` [propargyl alcohol], the melting point was -53 °C. For `CCOc1ccc(N)cc1` [p-ethoxyaniline], the melting point was 4 °C.

`COC(=O)c1ccc([N+](=O)[O-])cc1Cl` [methyl 2-chloro-4-nitrobenzoate] displayed a melting point of 76 °C. With `COc1cc2nc(N3CCN(C(=O)c4ccco4)CC3)nc(N)c2cc1OC` [Prazosin] the figure was 279 °C. In the case of `CC(=O)OCCOC(C)=O` [ethylene_glycol_diacetate], the melting point is -41 °C.

`c1ccc2c(c1)ccc1ccccc12` [Phenanthrene]: the melting point was found to be 101 °C. The value for `C[Si](C)(C)Cl` [chlorotrimethylsilane] was -58 °C. With `CCNc1ccccc1` [N-ethylaniline] the figure was -64 °C; with `N#Cc1cccc(I)c1` [3-iodobenzonitrile], 40 °C. For `OC1=NC(=Nc2ccccc2)S/C1=C\c1ccccc1` [OSM-S-55], the melting point stood at 260 °C. With `CC(C)(C)S` [2-methyl-2-propanethiol] the figure was 1 °C. For `C(#Cc1ccccc1)c1ccccc1` [diphenylacetylene], the melting point came to 60 °C. The value for `NC(=O)[C@H](Cc1ccccc1)NC(=O)OCc1ccccc1` [Nalpha-[(benzyloxy)carbonyl]phenylalaninamide] was 163 °C; that for `C1CCC(NC2CCCCC2)CC1` [N-Cyclohexylcyclohexanamine] was -1 °C. For `ClCc1ccc(Br)cc1` [4-bromobenzyl chloride], the melting point was determined as 40 °C.

Turning to `COc1ccc(NC(=O)N(C)C)cc1Cl` [metoxuron], the melting point is 127 °C. In the case of `C=CC(=O)OCC` [ethyl acrylate], the melting point was -71 °C. With `NC(=O)c1cccc(O)c1` [m-hydroxybenzamide] the figure was 170 °C; with `CC(CCc1oc2ccc(C)cc2c1-c1ccc(C)o1)=NO`, 104 °C; with `c1ccc(CCCc2ccccc2)cc1` [1,3-diphenylpropane], -21 °C. With `Cc1cccc(C)c1O` [2,6-dimethylphenol] the figure was 49 °C; with `O=C(O)c1c(F)cnc(F)c1F` [2,3,5-trifluoropyridine-4-carboxylic acid], 110 °C. The value for `O=C(O)c1cccc([N+](=O)[O-])c1` [3-nitrobenzoic acid] was 142 °C; that for `Cn1cc[nH]c1=S` [methimazole] was 146 °C (4×) and 147 °C.

As for `COc1cc(C#N)cc(OC)c1OC` [3,4,5-trimethoxybenzonitrile], the melting point was found to be 94 °C. The value for `OCCOCCOCCO` [2,2'-[Ethane-1,2-diylbis(oxy)]diethanol] was -4 °C. Turning to `OC/C(Br)=C(\Br)CO` [trans-2,3-dibromo-2-butene-1,4-diol], the melting point came out at 113 °C.

For the molecule `BrCC(Br)CBr` [1,2,3-tribromopropane], the melting point amounted to 17 °C. The value for `CC(=O)Nc1ccc(Cl)cc1F` [4'-chloro-2'-fluoroacetanilide] was 156 °C; that for `O=C(O)c1c(Cl)cc(Cl)cc1Cl` [2,4,6-trichlorobenzoic acid] was 163 °C. `COC(=O)NN` [methyl carbazate] registered a melting point of 72 °C.
